Results from paper PMC5615050 (Scientific Reports, 2017).

Target: Bac-NA^H274Y H1N1 (Influenza A virus, UniProt P03470, H259Y)
Test: biochemical

| Structure (SMILES) | IC50 [µM] |
| --- | --- |
| CC12CCC(O)CC1CCC1C2CCC2(C)C(C3=CC(=O)OC3)CCC12O (stereo not drawn) [BPR1P0008S0] | > 40 |
| CC1OC(OC2CC(O)C3(CO)C4C(O)CC5(C)C(C6COC(O)C6)CCC5(O)C4CCC3(O)C2)C(O)C(O)C1O (stereo not drawn) [BPR1P0003S0] | > 40 |
| CC12CCC(O)CC1CCC1C2CC(O)C2(C)C(C3=CC(=O)OC3)CCC12O (stereo not drawn) [BPR1P0007S0] | > 40 |
